Results taken from the supplement of paper PMC12592484.

How the values were obtained:
Test in all cases: drug sensitivity score (DSS2, normalised partial AUC of dose-response, 72 h CellTiter-Glo viability) (DSS (dimensionless)); higher = more sensitive (stronger growth inhibition / cytotoxicity); extreme values may be limits of the assay
CAF#3 = system: CAF#3 (primary prostate cancer-associated fibroblasts of myCAF-like type)
Method in brief: (§1)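 Cells were added to 384-well plates already holding compounds at five doses over a 10,000-fold range: low-passage primary prostate cancer-associated fibroblasts, PF179T, WPMY-1, LNCaP and 22Rv1. Viability was measured 72 h later by CellTiter-Glo 2.0 luminescence and scaled to vehicle and positive-control wells. The drug sensitivity score, computed in BREEZE, is a partial area under the fitted logistic dose–response curve divided by the log of its upper asymptote, with higher scores meaning greater sensitivity.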

CAF#6 = system: CAF#6 (primary prostate cancer-associated fibroblasts of iCAF-like type)
Method in brief: as §1

CAF#2 = system: CAF#2 (primary prostate cancer-associated fibroblasts of iCAF-like type)
Method in brief: as §1

PF179T = system: PF179T
Method in brief: as §1

CAF#1 = system: CAF#1 (primary prostate cancer-associated fibroblasts of myCAF-like type)
Method in brief: as §1

22Rv1 = system: 22Rv1
Method in brief: as §1

CAF#7 = system: CAF#7 (primary prostate cancer-associated fibroblasts of myCAF-like type)
Method in brief: as §1

CAF#5 = system: CAF#5 (primary prostate cancer-associated fibroblasts of myCAF-like type)
Method in brief: as §1

LNCAP = system: LNCAP
Method in brief: as §1

WPMY-1 = system: WPMY-1
Method in brief: as §1

CAF#4 = system: CAF#4 (primary prostate cancer-associated fibroblasts of iCAF-like type)
Method in brief: as §1

Compound | drug sensitivity score (CAF#3) | drug sensitivity score (CAF#6) | drug sensitivity score (CAF#2) | drug sensitivity score (PF179T) | drug sensitivity score (CAF#1) | drug sensitivity score (22Rv1) | drug sensitivity score (CAF#7) | drug sensitivity score (CAF#5) | drug sensitivity score (LNCAP) | drug sensitivity score (WPMY-1) | drug sensitivity score (CAF#4)
Nc1cc(COc2c(Cl)cc(C[C@H](N)C(=O)O)cc2Cl)c2oc(-c3ccccc3)nc2c1 [JPH203] (tested concentration range 0.5-5000 nM) | 0 | 0.1 | 2 | 0 | 0.1 | 0 | 0 | 1 | 0 | 0 | 0
CC(C)NC(=O)COc1cccc(-c2nc(Nc3ccc4[nH]ncc4c3)c3ccccc3n2)c1 [KD025] (tested concentration range 0.5-5000 nM) | 2.2 | 0 | 0.1 | 0 | 0 | 1 | 0.5 | 1.1 | 4.5 | 2.1 | 0.1
CC(C)[C@@H](CS(=O)(=O)C(C)C)N1C(=O)[C@@](C)(CC(=O)O)C[C@H](c2cccc(Cl)c2)[C@H]1c1ccc(Cl)cc1 [KRT-232] (tested concentration range 1-10000 nM) | 6.3 | 11.9 | 14.7 | 14.2 | 13.7 | 10 | 12.7 | 10.9 | 21.4 | 0 | 8.6
CS(=O)(=O)CCNCc1ccc(-c2ccc3ncnc(Nc4ccc(OCc5cccc(F)c5)c(Cl)c4)c3c2)o1 [Lapatinib] (tested concentration range 0.1-1000 nM) | 0.1 | 0 | 0 | 0 | 0 | 0 | 0 | 0 | 0.3 | 0 | 0
O=C(Nc1cnn2ccc(N3CCC[C@@H]3c3cc(F)ccc3F)nc12)N1CC[C@H](O)C1 [Larotrectinib] (tested concentration range 0.1-1000 nM) | 0 | 0 | 0 | 0 | 0 | 0 | 0 | 0 | 0 | 0 | 0
Oc1ccc2c(c1)CC[C@H](c1ccccc1)[C@@H]2c1ccc(OCCN2CCCC2)cc1 [Lasofoxifene] (tested concentration range 0.1-1000 nM) | 0 | 0 | 0 | 0 | 0 | 0 | 0 | 1.3 | 0 | 0 | 0
Nc1cccc2c1CN(C1CCC(=O)NC1=O)C2=O (stereo unspecified) [Lenalidomide] (tested concentration range 10-100000 nM) | 0 | 0 | 2.2 | 0 | 1.4 | 0 | 0 | 1.1 | 0 | 0 | 3
COc1cc2nccc(Oc3ccc(NC(=O)NC4CC4)c(Cl)c3)c2cc1C(N)=O [Lenvatinib] (tested concentration range 0.2-2500 nM) | 4.1 | 3.8 | 4.3 | 0.9 | 2.1 | 0 | 5.8 | 0.3 | 1.8 | 0.1 | 3
N#Cc1ccc(C(c2ccc(C#N)cc2)n2cncn2)cc1 [Letrozole] (tested concentration range 1-10000 nM) | 0 | 0 | 0 | 0 | 0 | 0 | 0 | 0 | 0 | 0 | 0
O=C1CCc2c(Oc3ccc4c(c3)[C@@H]3[C@H](O4)[C@H]3c3nc4cc(C(F)(F)F)ccc4[nH]3)ccnc2N1 [Lifirafenib] (tested concentration range 1-10000 nM) | 0 | 0.5 | 4.2 | 1.3 | 3.4 | 6.3 | 0.7 | 2.2 | 5.9 | 3.7 | 2.4
C[C@]1(O)C[C@@H](c2nc(-c3ccc4ccc(-c5ccccc5)nc4c3)c3c(N)nccn32)C1 [Linsitinib] (tested concentration range 1-10000 nM) | 0 | 0.2 | 2.6 | 0 | 1.5 | 1.3 | 0.7 | 3.2 | 0.6 | 0.5 | 0
Nc1nc(OCc2cc(Br)cs2)c2[nH]cnc2n1 [Lomeguatrib] (tested concentration range 1-10000 nM) | 0.1 | 0 | 1.4 | 0 | 0 | 0 | 0 | 0.2 | 0 | 0 | 0.1
NC(=O)N1CCC(CC(=O)N2CCC([C@H]3c4ncc(Br)cc4CCc4cc(Cl)cc(Br)c43)CC2)CC1 [Lonafarnib] (tested concentration range 5-50000 nM) | 9.2 | 8.5 | 9.7 | 3.1 | 8.2 | 18.6 | 7.7 | 7.6 | 16.1 | 16.6 | 9
C[C@H]1Oc2cc(cnc2N)-c2c(nn(C)c2C#N)CN(C)C(=O)c2ccc(F)cc21 [Lorlatinib] (tested concentration range 0.1-1000 nM) | 0 | 1.4 | 2.2 | 0 | 1.9 | 0.3 | 2.9 | 3.3 | 0 | 0.4 | 2.5
Cc1c(F)cc(C(=O)NC2CC2)cc1-c1ccc(C(=O)NCC(C)(C)C)cn1 [Losmapimod] (tested concentration range 1-10000 nM) | 0 | 0 | 0 | 0 | 0 | 0 | 0 | 0 | 3.7 | 0 | 0
CC[C@H](C)C(=O)O[C@H]1C[C@@H](C)C=C2C=C[C@H](C)[C@H](CC[C@@H]3C[C@@H](O)CC(=O)O3)[C@H]21 [Lovastatin] (tested concentration range 1-10000 nM) | 0.3 | 2.6 | 5.5 | 3.3 | 2.8 | 1 | 3 | 3.7 | 0 | 1.1 | 3.4
CNC(=O)c1cccc2cc(Oc3ccnc4cc(OCC5(N)CC5)c(OC)cc34)ccc12 [Lucitanib] (tested concentration range 1-10000 nM) | 6.3 | 6.6 | 5.9 | 5.7 | 6 | 1.8 | 13.5 | 3.9 | 3.4 | 2.8 | 7.4
O=C(O)CC[C@H]1CC[C@@](c2cc(F)ccc2F)(S(=O)(=O)c2ccc(Cl)cc2)CC1 [MK-0752] (tested concentration range 0.1-1000 nM) | 0 | 0 | 0 | 0 | 0 | 0 | 0 | 0 | 0 | 0 | 0
NC1(c2ccc(-c3nc4ccn5c(=O)[nH]nc5c4cc3-c3ccccc3)cc2)CCC1 [MK-2206] (tested concentration range 0.1-1000 nM) | 4 | 3.2 | 2.6 | 1.8 | 2.7 | 5.8 | 1.8 | 3 | 11.1 | 2.4 | 2
O=C(c1cccc(Cl)c1F)N1CCN(Cc2cccc(Nc3nccs3)n2)CC1 [MK-8745] (tested concentration range 1-10000 nM) | 6.8 | 3.4 | 4.3 | 5 | 2.6 | 4 | 2.6 | 2.8 | 14.7 | 7.6 | 1.1
O=C(Nc1cccc(NC(=O)c2cccc(O)c2O)c1)c1cccc(O)c1O [MST-312] (tested concentration range 1-10000 nM) | 8.9 | 10.5 | 15.3 | 10.7 | 12.8 | 10.3 | 11.6 | 13.5 | 15.6 | 10.2 | 12.9
CNC(=O)[C@@H](NC(=O)[C@H](CC(C)C)[C@H](O)C(=O)NO)C(C)(C)C [Marimastat] (tested concentration range 1-10000 nM) | 0.6 | 0 | 0 | 0 | 0 | 0 | 0 | 0 | 0 | 0.4 | 0
Cc1ccc(NC(=O)c2ccc(CN3CCN(C)CC3)cc2)cc1Nc1nc(-c2cccnc2)cs1 [Masitinib] (tested concentration range 1-10000 nM) | 0.6 | 1.6 | 5.3 | 2.4 | 4.1 | 5.3 | 1.9 | 3.1 | 4.3 | 5.3 | 7.6
CCN(CC)CCCC(C)Nc1c2ccc(Cl)cc2nc2ccc(OC)cc12 (stereo unspecified) [Mepacrine] (tested concentration range 5-50000 nM) | 11.3 | 9.9 | 14.9 | 13.7 | 9.1 | 17.3 | 12.6 | 13.4 | 19 | 19.6 | 14.2
S=c1[nH]cnc2nc[nH]c12 [Mercaptopurine] (tested concentration range 1-10000 nM) | 0.1 | 1.4 | 0.1 | 0 | 0 | 2.7 | 0.1 | 0 | 0.2 | 9 | 2.8
Cc1ccc(C(=O)Nc2ccc(Oc3cc4cnn(C)c4cc3-c3cn[nH]c3)c(F)c2)c(=O)n1-c1ccc(F)cc1 [Merestinib] (tested concentration range 0.1-1000 nM) | 3 | 3.5 | 5.6 | 5.3 | 3 | 0 | 3.9 | 3.8 | 0 | 4.3 | 4.4
